The target in one experiment is BTK (Homo sapiens (Human), UniProt Q06187). The experiment in a line: Inhibition of B-cell activation measured by CD69 expression in primary CD19+ cells. As to conditions: primary CD19+ cells stimulated with anti-human IgD, CD69 expression by flow cytometry. The format is cell-based. The procedure:
Cells were collected and plated in a 96 flat bottom plate at a concentration of 2×10^5/well in RPMI media containing 10% FBS, rested for 1 hour at 37° c. Cells were treated with inhibitor in duplicates or vehicle control in 1% DMSO final concentration for 1 hour at 37° c., 5% CO2. […] B cells were analyzed by flow cytometry using a BD LSRII or BD FACsCanto Flow Cytometer. Viable cells were gated, and CD69 percentage was determined using FlowJo software.
Background: In flow cytometry, cells or beads pass a laser one at a time.

In experiment [1] the target is full-length human His-tagged BTK (Homo sapiens (Human), UniProt Q06187). Description: BTK Assay (HTRF, Cisbio KinEASE-TK). Type of experiment: biochemical. As to conditions: 6 nM BTK, 30 uM ATP, 15 min preincubation. On the technique in general: TR-FRET usually uses a lanthanide donor and a delayed reading to cut background.
Procedure: An HTRF assay (Cisbio KinEASE-TK cat #62TKOPEC) was performed to quantitate the ability of test compounds to inhibit BTK mediated phosphorylation of substrate. Assays were assembled in 384 well plates where 6 nM of full-length human His-tagged BTK (Life Technologies cat # PV3587) and test compound at varying concentrations were preincubated for 15 minutes at 28° C. Then, 1 uM of TK substrate-biotin and 30 uM ATP were added and incubated for an additional 30 minutes at 28° C.
The target in a further experiment is EGFR (Homo sapiens (Human), UniProt P00533). Description: Inhibition of EGFR autophosphorylation in A431 human epithelial cells stimulated with EGF. The conditions noted are these: EGF 60 ng/mL, phospho EGFR, read-out: A431 p-EGFR IC50. The format is cell-based. From the text:
The compounds described herein show a range of selectivities against EGFR as measured in cellular assays (BTK activity measured by CD69 expression in primary CD19^+ cells; EGFR activity measured by EGFR phosphorylation in A431 cells).
Inhibition of EGFR Autophosphorylation in A431 Human Epithelial Cells Stimulated with Epithelial Growth Factor
A431 cells (ATCC # CRL-1555 FZ) are thawed and plated in DMEM containing 10% FBS in a 384-well tissue culture treated plate at 15,000 cells/well. After incubating for 24 hours at 37° C., 5% CO2, the cells are treated with test compound (1% DMSO final concentration) and incubated for 16 hours at 37° C., 5% CO2. EGF (Millipore, 01-107) is added at a final concentration of 60 ng/mL and incubated for 10 minutes. The medium is removed, the cells are lysed, and phospho EGFR is measured (Meso Scale Diagnostics, N31CB-1).

Structures are written as SMILES. Where only a bound is given, the exact number is not on record here.

Chain of BTK (Q06187 whole entry): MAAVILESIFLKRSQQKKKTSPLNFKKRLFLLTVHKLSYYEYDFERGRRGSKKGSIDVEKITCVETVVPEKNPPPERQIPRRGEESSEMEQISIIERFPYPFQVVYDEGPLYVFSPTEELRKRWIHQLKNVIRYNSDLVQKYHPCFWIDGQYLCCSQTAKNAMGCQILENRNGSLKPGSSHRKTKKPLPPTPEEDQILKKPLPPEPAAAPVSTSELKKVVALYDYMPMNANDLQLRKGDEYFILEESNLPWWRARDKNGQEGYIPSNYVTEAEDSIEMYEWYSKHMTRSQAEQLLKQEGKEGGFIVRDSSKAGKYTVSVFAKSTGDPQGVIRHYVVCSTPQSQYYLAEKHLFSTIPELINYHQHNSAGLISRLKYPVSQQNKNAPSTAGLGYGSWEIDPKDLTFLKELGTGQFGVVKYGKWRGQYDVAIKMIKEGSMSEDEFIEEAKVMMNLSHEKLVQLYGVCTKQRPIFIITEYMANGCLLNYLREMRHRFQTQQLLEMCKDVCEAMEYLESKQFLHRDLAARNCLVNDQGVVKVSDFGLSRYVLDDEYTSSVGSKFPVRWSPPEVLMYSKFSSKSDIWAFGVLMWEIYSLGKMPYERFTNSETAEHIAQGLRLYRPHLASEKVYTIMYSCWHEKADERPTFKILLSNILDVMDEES
Chain of full-length human His-tagged BTK (Q06187 whole entry): as above
Chain of EGFR (P00533 25-1210): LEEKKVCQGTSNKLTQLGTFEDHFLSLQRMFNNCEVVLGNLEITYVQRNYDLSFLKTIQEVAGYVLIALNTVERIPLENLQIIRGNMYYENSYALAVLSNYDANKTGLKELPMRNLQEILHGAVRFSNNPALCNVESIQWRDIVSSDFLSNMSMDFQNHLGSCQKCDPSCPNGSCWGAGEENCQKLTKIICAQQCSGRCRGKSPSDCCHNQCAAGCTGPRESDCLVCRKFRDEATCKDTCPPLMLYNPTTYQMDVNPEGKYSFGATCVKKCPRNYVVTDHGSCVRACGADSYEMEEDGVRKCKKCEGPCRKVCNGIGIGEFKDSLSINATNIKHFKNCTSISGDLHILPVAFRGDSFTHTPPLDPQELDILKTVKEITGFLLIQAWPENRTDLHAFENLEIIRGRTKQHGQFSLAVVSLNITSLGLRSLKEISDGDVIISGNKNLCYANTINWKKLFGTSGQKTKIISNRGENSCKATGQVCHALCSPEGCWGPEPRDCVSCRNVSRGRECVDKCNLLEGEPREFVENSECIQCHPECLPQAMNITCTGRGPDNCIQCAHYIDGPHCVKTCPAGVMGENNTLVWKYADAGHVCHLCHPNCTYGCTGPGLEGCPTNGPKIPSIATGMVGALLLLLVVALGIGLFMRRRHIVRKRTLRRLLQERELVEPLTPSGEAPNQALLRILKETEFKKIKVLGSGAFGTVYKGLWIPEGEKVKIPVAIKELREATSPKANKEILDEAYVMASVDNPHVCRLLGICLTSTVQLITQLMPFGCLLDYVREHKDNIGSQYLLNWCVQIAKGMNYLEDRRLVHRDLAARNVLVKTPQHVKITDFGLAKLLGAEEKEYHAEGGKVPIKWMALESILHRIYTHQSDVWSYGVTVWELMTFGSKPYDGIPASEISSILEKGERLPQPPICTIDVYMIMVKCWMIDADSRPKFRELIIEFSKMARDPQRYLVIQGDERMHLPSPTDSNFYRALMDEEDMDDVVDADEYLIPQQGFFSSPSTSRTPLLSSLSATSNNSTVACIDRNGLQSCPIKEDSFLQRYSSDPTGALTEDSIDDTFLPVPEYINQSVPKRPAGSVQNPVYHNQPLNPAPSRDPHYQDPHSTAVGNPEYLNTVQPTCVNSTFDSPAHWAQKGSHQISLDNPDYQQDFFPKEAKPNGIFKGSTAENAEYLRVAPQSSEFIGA

For `CC#CC(=O)N1CC2(CC(n3nc(-c4ccc(Oc5ccccc5)cc4)c(C(N)=O)c3N)C2)C1` [Example 41], the IC50 (as a rule, the point on the concentration scale where inhibition reaches its midpoint) turned out to be 1 nM against BTK, 0.73 nM in experiment [1] and 430 nM at EGFR.
Regarding `CC#CC(=O)N1CC[C@]2(C1)C[C@H](n1nc(-c3ccc(OCCC)c(F)c3)c(C(N)=O)c1N)C2` [Example 161], the IC50 is 2.1 nM at BTK, 1.1 nM in experiment [1] and 400 nM on EGFR.
On to `C=CC(=O)N1CC[C@]2(C1)C[C@H](n1cc(C(N)=O)c(-c3ccc(Oc4ccccc4)cc3)n1)C2` [Example 40], for which the figures for the IC50 (on BTK; in experiment [1]; on EGFR) were 20 nM, 4.9 nM and over 10000 nM, respectively.
With `C=CC(=O)N1CC2(CC(n3nc(-c4ccc(OC5CC5)cc4)c(C(N)=O)c3N)C2)C1` [Example 112], the IC50 against BTK was 41 nM; in experiment [1] it was 6.7 nM; on EGFR, 5800 nM.
As to `C=CC(=O)N1CCC[C@@H](n2nc(-c3ccc(Oc4ccccc4)cc3)c(C(N)=O)c2N)C1` [Example 54], the IC50 on EGFR was determined as 6.6 nM.
As to `CC#CC(=O)N1CC2(CC(n3nc(-c4ccc(OC(C)C)cc4)c(C(N)=O)c3N)C2)C1` [Example 106], the IC50 was 30 nM against BTK, 13 nM in experiment [1] and over 10000 nM at EGFR.
On the same counts, the results for `CC#CC(=O)N1CC2(CC(n3nc(-c4ccc(OCC(F)(F)F)cc4)c(C(N)=O)c3N)C2)C1` [Example 115] are 7.8 nM, 3.5 nM and 6400 nM.
As to `CC#CC(=O)N1CC[C@]2(C1)C[C@@H](c1nc(-c3ccc(Oc4ccccc4)cc3)c(C(N)=O)s1)C2` [Example 78], the values for the IC50 (on BTK; in experiment [1]; at EGFR) were 2.5 nM, 2.1 nM and 1800 nM, respectively.
For `CC#CC(=O)N1CC[C@]2(C1)C[C@H](n1nc(-c3ccc(OCC(F)(F)F)cc3)c(C(N)=O)c1N)C2` [Example 164], the IC50 turned out to be 1.5 nM against BTK, 0.5 nM in experiment [1] and 420 nM at EGFR.
For the compound `CC#CC(=O)N1CC[C@]2(C1)C[C@H](n1nc(-c3ccc(OC)cc3Cl)c(C(N)=O)c1N)C2` [Example 158], the IC50 on BTK is 58 nM; in experiment [1], 6.3 nM; on EGFR, over 10000 nM.
Turning to `C=CC(=O)N1CC[C@]2(C1)C[C@@H](n1nc(-c3ccc(Oc4ccccc4)cc3)c(C(N)=O)c1N)C2` [Example 81], the results for the IC50 (against BTK; in experiment [1]; at EGFR) were 0.9 nM, 0.79 nM and 790 nM, respectively.
As to `C=CC(=O)N1CC[C@]2(C1)C[C@H](n1nc(-c3ccc(OCC(F)(F)F)cc3)c(C(N)=O)c1N)C2` [Example 163], the IC50 against BTK was found to be 15 nM; in experiment [1] it was 4.8 nM; on EGFR it was 5200 nM.
With `C=CC(=O)N1CCC[C@@H](c2nc(-c3ccc(Oc4ccccc4)cc3)c(C(N)=O)[nH]2)C1` [Example 46], the IC50 at BTK came to 2 nM; in experiment [1], 1.2 nM; on EGFR it was 120 nM.
With `C=CC(=O)N1CC2(CC(n3cc(C(N)=O)c(-c4ccc(Oc5ccccc5)cc4)n3)C2)C1` [Example 28], the IC50 was 9 nM against BTK, 3.5 nM in experiment [1] and 4700 nM on EGFR.
`C=CC(=O)N1CC[C@]2(C1)C[C@H](n1nc(-c3ccc(OCCC)c(F)c3)c(C(N)=O)c1N)C2` [Example 165]: the IC50 against BTK is 10 nM; in experiment [1] it was 15 nM; on EGFR, 3700 nM.
Consider `CC#CC(=O)N1CC2(CC(n3nc(-c4ccc(OCCC)cc4)c(C(N)=O)c3N)C2)C1` [Example 107], for which the IC50 against BTK was determined as 8.2 nM; in experiment [1], 3.3 nM; at EGFR, 4200 nM.
Turning to `CC#CC(=O)N1CC[C@]2(C1)C[C@H](n1nc(-c3ccc(OC(F)(F)F)cc3)c(C(N)=O)c1N)C2` [Example 160], the IC50 on BTK amounted to 4.5 nM; in experiment [1] it was 1.4 nM; on EGFR it was 1200 nM.
In turn, `CC#CC(=O)N1CC[C@]2(C1)C[C@H](n1nc(-c3ccc(OC)cc3)c(C(N)=O)c1N)C2` [Example 154] yielded an IC50 in experiment [1] of 0.6 nM.

Values taken from US10138229B2, “Heteroaromatic compounds as BTK inhibitors” (Boehringer Ingelheim International GmbH, priority 2012, dated 2018).
